Source: US7524860B2, “Antibacterial agents” (Pfizer Inc., priority 2004, dated 2009)
Converted amounts (≈) assume the structure as drawn. Read-outs that look alike come from different tables or passages of the source.

Test system: Neisseria gonorrhoeae, GC525 (NG-2888)
Experiment: in-vitro antibacterial activity, microbroth dilution MIC susceptibility testing
Type: cell-based
Design: unit: ug/mL
Details: microbroth dilution in gonococcal broth, 20-24 hours at 35 C, lowest concentration preventing visible growth
Experimental: The in-vitro antibacterial activity of selected compounds was determined against a stain of Neisseria gonorrhoeae, GC525 (NG-2888), which is described by Rouquette-Loughlin et al, in Journal of Bacteriology, February 2003, p. 1101-1106, at p. 1103. In general, minimum inhibitory concentration (MIC) susceptibility testing followed procedures recommended by the National Committee for Clinical Laboratory Standards (NCCLS^1-2) or followed the descriptions described below:
Neisseria gonorrhoeae strains were grown on Chocolate Agar II plates (BBL—Becton Dickinson Microbiology Systems, Cockeysville, Md.) and incubated at 35° C. in a humidified 5% CO2 incubator (Form a Scientific, Marietta Ohio). For microbroth dilution MIC testing, N. gonorrhoeae were tested in gonococcal broth (GCB):
Gram stains were also utilized. Permanent Stock Culture Collection
Bacterial stock cultures are stored as frozen suspensions at −70 C. N. gonorrhoeae cultures are suspended in inactivated Horse Serum (Colorado Serum Company, Denver, Colo.) containing 7.5% glucose prior to snap freezing in a dry ice/ethanol bath.
Preparation of Standardized Test Inocula and Plate Inoculation
Frozen stock cultures were used as the initial source of organisms for performing microbroth dilution MIC testing. Stock cultures were passed on their respective growth medium at least one growth cycle (18-24 hours) prior to their use. Bacterial culture suspensions were prepared directly from Chocolate Agar II plates into 10 mL cation-adjusted Mueller-Hinton Broth (CAMHB, BBL, # BB215069). Before use, cultures were adjusted to an optical density value of 1.6-2 on a Perkin-Elmer Lambda EZ150 Spectrophotometer (Wellesley, Mass.) set at a wavelength of 600 nm. Random cultures were plated for validation of actual colony counts. The adjusted cultures were diluted 400-fold (0.25 mL inoculum+100 mL GCB) into gonococcal broth producing a starting inoculum of approximately 5×10^5 cfu/mL. These cultures were inoculated into test plates (100 uL/well) using a Biomek® FX workstation (Beckman Coulter Inc., Fullerton, Calif.). The inoculated plates were placed in stacks of no more than 4 and covered with an empty plate. Plates were incubated for 20-24 hours at 35 C in a humidified CO2 incubator.
Test Compound (“Drug”) Preparation
Drug stock solutions (2 mg/mL in DMSO) were prepared on the day of testing. Drugs were weight corrected for assay content where necessary.
Drug Dilution Tray Preparation
Microbroth dilution stock plates were prepared in two dilution series, 64-0.06 ug drug/mL and 1-0.001 ug drug/mL. For the high concentration series, 200 uL of stock solution (2 mg/mL) was added to duplicate rows of a 96-well plate. This was used as the first well in the dilution series. Serial two-fold decremental dilutions were made using a BioMek FX robot (Beckman Coulter Inc., Fullerton, Calif.) with 10 of the remaining 11 wells, each of which contained 100 uL of the appropriate solvent/diluent. Row 12 contained solvent/diluent only and served as the control. For tube one of the low concentration series, 200 uL of a 31.25 ug/mL stock was added to duplicate rows of a 96-well plate. Serial two-fold dilutions were made as described above.
Daughter plates were spotted (3.2 uL/well) from the stock plates listed above using the BioMek FX robot and were inoculated with organism (100 uL/well) as described previously.
After incubation, the degree of growth in each well was read visually with the aid of a Test Reading Mirror (Dynatech Lab 220-16, Dynex Technologies, Chantilly, Va.). 96-well test plates are read in a darkened room with a single light shining from above. The MIC is the lowest concentration of drug that prevents macroscopically visible growth under the conditions of the test. […] If MIC values in duplicate tests differ by 1 well (two-fold), the […] value is reported. If duplicate tests vary by 2 dilutions (four-fold), the middle value is reported.

[1] = Neisseria gonorrhoeae, read-out: MIC

| Molecule | MIC [1] | MIC |
| --- | --- | --- |
| CCNC(=O)Nc1nc2cc(-c3ccc(OC)cc3OC)cc(C(=O)NCC)n2n1 [Example 102, 7-(2,4-Dimethoxy-phenyl)-2-(3-ethyl-ureido)-[1,2,4]triazolo[1,5-a]pyridine-5-carboxylic acid ethylamide] | > 64 µg/mL | – |
| CCNC(=O)Nc1nc2cc(-c3cccnc3)cc(C(=O)NC(C)c3ccncc3)n2n1 (stereo not drawn) [Example 93, 2-(3-Ethyl-ureido)-7-pyridin-3-yl-[1,2,4]triazolo[1,5-a]pyridine-5-carboxylic acid (1-pyridin-4-yl-ethyl)-amide] | 2 µg/mL (≈ 4.65 µM) | – |
| CCNC(=O)Nc1nc2cc(-c3cccnc3)cc(-c3cnc(C)s3)n2n1 [Example 132, 1-Ethyl-3-[5-(2-methyl-thiazol-5-yl)-7-pyridin-3-yl-[1,2,4]triazolo[1,5-a]pyridin-2-yl]-urea] | 2 µg/mL (≈ 5.27 µM) | – |
| CCNC(=O)Nc1nc2cc(-c3ccc(OC)nc3)cc(-c3cnc(C)o3)n2n1 [Example 149, 1-Ethyl-3-[7-(6-methoxy-pyridin-3-yl)-5-(2-methyl-oxazol-5-yl)-[1,2,4]triazolo[1,5-a]pyridin-2-yl]-urea] | 16 µg/mL (≈ 40.7 µM) | – |
| CCNC(=O)Nc1nc2cc(-c3ccccc3)cc(C(=O)NCC)n2n1 [Example 71, 2-(3-Ethyl-ureido)-7-phenyl-[1,2,4]triazolo[1,5-a]pyridine-5-carboxylic acid ethylamide] | 4 µg/mL (≈ 11.4 µM) | – |
| CCNC(=O)Nc1nc2cc(-c3cccnc3)cc(-c3ccccn3)n2n1 [Example 127, 1-Ethyl-3-(5-pyridin-2-yl-7-pyridin-3-yl-[1,2,4]triazolo[1,5-a]pyridin-2-yl)-urea] | 32 µg/mL (≈ 89 µM) | – |
| CCNC(=O)Nc1nc2cc(-c3cccnc3)cc(C(C)O)n2n1 (stereo not drawn) [Example 25, N-Ethyl-N′-[5-(1-hydroxyethyl)-7-pyridin-3-yl[1,2,4]triazolo[1,5-a]pyridin-2-yl]urea] | 1 µg/mL (≈ 3.06 µM) | – |
| CCNC(=O)Nc1nc2cc(-c3cccnc3)cc(C(=O)NCc3ccccc3)n2n1 [Example 11, 2-(3-Ethyl-ureido)-7-pyridin-3-yl-[1,2,4]triazolo[1,5-a]pyridine-5-carboxylic acid benzylamide] | > 64 µg/mL | – |
| CCNC(=O)Nc1nc2cc(-c3cccnc3)cc(-c3cnc(C)o3)n2n1 [Example 129, N-Ethyl-N′-[5-(2-methyl-1,3-oxazol-5-yl)-7-pyridin-3-yl[1,2,4]triazolo[1,5-a]pyridin-2-yl]urea] | 1 µg/mL (≈ 2.75 µM) | – |
| 1-[7-(6-Dimethylamino-pyridin-3-yl)-[1,2,4]triazolo[1,5-a]pyridin-2-yl]-3-ethyl-urea [Example 4] | – | >64.0 µg/mL |
| CCNC(=O)Nc1nc2cc(-c3cccnc3)cc(C(=O)NCCC3CCCN3C)n2n1 (stereo not drawn) [Example 46, 2-(3-Ethyl-ureido)-7-pyridin-3-yl-[1,2,4]triazolo[1,5-a]pyridine-5-carboxylic acid [2-(1-methyl-pyrrolidin-2-yl)-ethyl]-amide] | 1 µg/mL (≈ 2.29 µM) | – |
| CCNC(=O)Nc1nc2cc(-c3ccccc3C(F)(F)F)cc(C(=O)NCC)n2n1 [Example 82, 2-(3-Ethyl-ureido)-7-(2-trifluoromethyl-phenyl)-[1,2,4]triazolo[1,5-a]pyridine-5-carboxylic acid ethylamide] | > 64 µg/mL | – |
| CCNC(=O)Nc1nc2cc(-c3ccccc3C)cc(C(=O)NCC)n2n1 [Example 73, 2-(3-Ethyl-ureido)-7-o-tolyl-[1,2,4]triazolo[1,5-a]pyridine-5-carboxylic acid ethylamide] | 16 µg/mL (≈ 43.7 µM) | – |
| CCNC(=O)Nc1nc2cc(-c3cccnc3)cc(C(=O)NCc3cccnc3)n2n1 [Example 91, 2-(3-Ethyl-ureido)-7-pyridin-3-yl-[1,2,4]triazolo[1,5-a]pyridine-5-carboxylic acid(pyridin-3-ylmethyl)-amide] | 16 µg/mL (≈ 38.4 µM) | – |
| CCNC(=O)Nc1nc2cc(-c3ccc(F)cc3F)cc(C(=O)NCC)n2n1 [Example 64, 7-(2,4-Difluoro-phenyl)-2-(3-ethyl-ureido)-[1,2,4]triazolo[1,5-a]pyridine-5-carboxylic acid ethylamide] | > 64 µg/mL | – |
| CCNC(=O)Nc1nc2cc(-c3cccnc3)cc(C(=O)NCC(C)(C)C)n2n1 [Example 43, 2-(3-Ethyl-ureido)-7-pyridin-3-yl-[1,2,4]triazolo[1,5-a]pyridine-5-carboxylic acid (2,2-dimethyl-propyl)-amide] | > 64 µg/mL | – |
| CCNC(=O)Nc1nc2cc(-c3cccc(C(C)C)c3)cc(C(=O)NCC)n2n1 [Example 62, 2-(3-Ethyl-ureido)-7-(3-isopropyl-phenyl)-[1,2,4]triazolo[1,5-a]pyridine-5-carboxylic acid ethylamide] | 2 µg/mL (≈ 5.07 µM) | – |
| CCNC(=O)Nc1nc2cc(-c3cccnc3)cc(NC3CCCCC3)n2n1 [Example 138, 1-(5-Cyclohexylamino-7-pyridin-3-yl-[1,2,4]triazolo[1,5-a]pyridin-2-yl)-3-ethyl-urea] | 0.5 µg/mL (≈ 1.32 µM) | – |
| CCNC(=O)Nc1nc2cc(-c3cccnc3)cc(C(=O)NCC(C)C)n2n1 [Example 40, 2-(3-Ethyl-ureido)-7-pyridin-3-yl-[1,2,4]triazolo[1,5-a]pyridine-5-carboxylic acid isobutyl-amide] | 2 µg/mL (≈ 5.24 µM) | – |
| CCNC(=O)Nc1nc2cc(-c3cccc(SC)c3)cc(C(=O)NCC)n2n1 [Example 60, 2-(3-Ethyl-ureido)-7-(3-methyl-sulfanyl-phenyl)-[1,2,4]triazolo[1,5-a]pyridine-5-carboxylic acid ethylamide] | > 16 µg/mL | – |
| CCNC(=O)Nc1nc2cc(-c3cccnc3)cc(C(=O)N[C@H](C)c3ccccc3)n2n1 [Example 48, (R)-2-(3-Ethyl-ureido)-7-pyridin-3-yl-[1,2,4]triazolo[1,5-a]pyridine-5-carboxylic acid(1-phenyl-ethyl)-amide] | 16 µg/mL (≈ 37.3 µM) | – |
| CCNC(=O)Nc1nc2cc(-c3cccnc3)cc(C(=O)NCCCN3CCCC3)n2n1 [Example 47, 2-(3-Ethyl-ureido)-7-pyridin-3-yl-[1,2,4]triazolo[1,5-a]pyridine-5-carboxylic acid (3-pyrrolidin-1-yl-propyl)-amide] | 16 µg/mL (≈ 36.7 µM) | – |
| CCNC(=O)Nc1nc2cc(-c3ccc(F)c(F)c3)cc(C(=O)NCC)n2n1 [Example 55, 7-(3,4-Difluoro-phenyl)-2-(3-ethyl-ureido)-[1,2,4]triazolo[1,5-a]pyridine-5-carboxylic acid ethylamide] | 2 µg/mL (≈ 5.15 µM) | – |
| CCNC(=O)Nc1nc2cc(-c3cnc(OC)nc3OC)cc(C(=O)NCC)n2n1 [Example 98, 7-(2,4-Dimethoxy-pyrimidin-5-yl)-2-(3-ethyl-ureido)-[1,2,4]triazolo[1,5-a]pyridine-5-carboxylic acid ethylamide] | 2 µg/mL (≈ 4.83 µM) | – |
| CCNC(=O)Nc1nc2cc(-c3cccnc3)cc(-c3cnc(CC)s3)n2n1 [Example 124, 1-ethyl-3-[5-(2-ethyl-thiazol-5-yl)-7-pyridin-3-yl-[1,2,4]triazolo[1,5-a]pyridin-2-yl]-urea] | – | 64.0 µg/mL (≈ 163 µM) |
| CCNC(=O)Nc1nc2cc(-c3cccnc3)cc(C(=O)N(CC)CC)n2n1 [Example 104, 2-(3-Ethyl-ureido)-7-pyridin-3-yl-[1,2,4]triazolo[1,5-a]pyridine-5-carboxylic acid diethylamide] | – | 64.0 µg/mL (≈ 168 µM) |
| CCNC(=O)Nc1nc2cc(-c3ccc(F)cc3C)cc(C(=O)NCC)n2n1 [Example 63, 2-(3-Ethyl-ureido)-7-(4-fluoro-2-methyl-phenyl)-[1,2,4]triazolo[1,5-a]pyridine-5-carboxylic acid ethylamide] | 8 µg/mL (≈ 20.8 µM) | – |
